# From patent US20040116652A1, “Method for producing and using novel human defensins as biologically active proteins for treating infections and other diseases” (priority 2000, published 2004)
# Bridge positions count the residues as written; N and C are the ends. Ends that are not written are not given here.
# Key:
# Assay in all cases: radial diffusion assay, antimicrobial effect
# Type in all cases: cell-based
# Design in all cases: key: (+) means the formation of an inhibition halo; (−) means no formation of an inhibition halo
# Staphylococcus carnosus = test system: Staphylococcus carnosus
# Source text: (§1) In a radial diffusion assay, the activities stated in Table 1 could be measured for the peptides against different bacterial strains. In the Table, (+) means the formation of an inhibition halo, and (−) means no formation of an inhibition halo.
# Escherichia coli = test system: Escherichia coli
# Source text: as §1
# Saccharomyces cerevisiae = test system: Saccharomyces cerevisiae
# Source text: as §1
sequence,measurement,setting,value
"NTICHMQQGICRLFFCHSGEKKRGICSDPWNRCCVSNTDEEGKEKPEMD (disulfide 4-33, 11-26, 16-34) [hBD10]",formation of an inhibition halo,Staphylococcus carnosus,(+)
same,formation of an inhibition halo,Escherichia coli,(+)
same,formation of an inhibition halo,Saccharomyces cerevisiae,(+)
"TPGGTQRCWNLYGKCRYRCSKKERVYVYCINNKMCCVKPKYQPKERWWPF (disulfide 8-35, 15-29, 19-36) [hBD17]",formation of an inhibition halo,Staphylococcus carnosus,(+)
same,formation of an inhibition halo,Escherichia coli,(+)
same,formation of an inhibition halo,Saccharomyces cerevisiae,(+)
"FIGLRRCLMGLGRCRDHCNVDEKEIQKCKMKKCCVGPKVVKLIK (disulfide 7-33, 14-28, 18-34) [hBD19]",formation of an inhibition halo,Staphylococcus carnosus,(+)
same,formation of an inhibition halo,Escherichia coli,(+)
same,formation of an inhibition halo,Saccharomyces cerevisiae,(−)
